Source: article PMC9234961 (Journal of Medicinal Chemistry, 2022)
Read-outs that look alike come from different tables or passages of the source.

Tests used:
kinases (468) [1] = molecular target: kinases (468) (Homo sapiens, UniProt Q9P1W9); conditions: PIM2; 1000 nM
kinases (468) [2] = molecular target: kinases (468) (Homo sapiens, UniProt P42345); conditions: MTOR; 1000 nM
kinases (468) [3] = molecular target: kinases (468) (Homo sapiens, UniProt Q99640); conditions: PKMYT1; 1000 nM
kinases (468) [4] = molecular target: kinases (468) (Homo sapiens, UniProt Q9UM73, L1196M); conditions: ALK(L1196M); 1000 nM
kinases (468) [5] = molecular target: kinases (468) (Homo sapiens, UniProt Q8TDX7); conditions: NEK7; 1000 nM
kinases (468) [6] = molecular target: kinases (468) (Homo sapiens, UniProt P00519, F317I); conditions: 1000 nM
kinases (468) (Homo sapiens, UniProt P00519, F317I), sequence (P00519 whole entry F317I): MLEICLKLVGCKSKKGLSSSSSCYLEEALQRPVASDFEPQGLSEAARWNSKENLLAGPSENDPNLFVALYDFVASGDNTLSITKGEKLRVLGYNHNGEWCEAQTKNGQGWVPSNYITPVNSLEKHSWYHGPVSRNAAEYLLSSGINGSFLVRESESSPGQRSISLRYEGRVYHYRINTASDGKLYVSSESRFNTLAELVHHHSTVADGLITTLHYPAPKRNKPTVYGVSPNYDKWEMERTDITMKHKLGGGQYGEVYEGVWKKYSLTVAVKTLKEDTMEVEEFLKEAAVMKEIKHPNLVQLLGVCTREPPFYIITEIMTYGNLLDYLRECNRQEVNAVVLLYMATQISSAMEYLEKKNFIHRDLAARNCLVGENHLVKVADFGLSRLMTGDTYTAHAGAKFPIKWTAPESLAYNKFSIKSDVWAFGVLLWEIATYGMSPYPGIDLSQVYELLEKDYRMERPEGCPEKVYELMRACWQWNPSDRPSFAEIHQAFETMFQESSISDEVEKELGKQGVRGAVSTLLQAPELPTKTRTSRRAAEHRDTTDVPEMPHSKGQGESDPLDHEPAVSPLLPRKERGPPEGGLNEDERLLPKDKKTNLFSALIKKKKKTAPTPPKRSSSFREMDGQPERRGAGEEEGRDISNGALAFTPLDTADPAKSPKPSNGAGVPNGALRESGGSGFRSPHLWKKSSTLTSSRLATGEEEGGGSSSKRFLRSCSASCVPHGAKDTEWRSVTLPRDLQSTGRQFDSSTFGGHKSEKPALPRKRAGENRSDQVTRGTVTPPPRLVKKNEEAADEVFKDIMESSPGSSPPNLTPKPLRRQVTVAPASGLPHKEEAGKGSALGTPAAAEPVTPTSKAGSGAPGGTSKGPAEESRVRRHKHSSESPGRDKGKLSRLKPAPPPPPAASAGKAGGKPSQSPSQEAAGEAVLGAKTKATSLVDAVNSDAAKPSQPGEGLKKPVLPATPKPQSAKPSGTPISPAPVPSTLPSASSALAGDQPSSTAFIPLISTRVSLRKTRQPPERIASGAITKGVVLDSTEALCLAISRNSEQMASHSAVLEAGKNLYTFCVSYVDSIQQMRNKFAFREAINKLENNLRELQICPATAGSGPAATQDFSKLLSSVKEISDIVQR

kinases (468) [7] = molecular target: kinases (468) (Homo sapiens, UniProt O75116); conditions: kinase ROCK2 (Entrez ROCK2); compound concentration 1000 nM
kinases (468) [8] = molecular target: kinases (468) (Homo sapiens, UniProt P00533); conditions: EGFR; 1000 nM
kinases (468) [9] = molecular target: kinases (468) (Homo sapiens, UniProt P49137); conditions: MAPKAPK2; 1000 nM
kinases (468) [10] = molecular target: kinases (468) (Homo sapiens, UniProt P21127); conditions: CDC2L1 (CDK11B); 1000 nM
kinases (468) [11] = molecular target: kinases (468) (Homo sapiens, UniProt P35916); conditions: FLT4; 1000 nM
kinases (468) [12] = molecular target: kinases (468) (Homo sapiens, UniProt O95835); conditions: LATS1; 1000 nM
kinases (468) [13] = molecular target: kinases (468) (Homo sapiens, UniProt Q6P2M8); conditions: CAMK1B (PNCK); 1000 nM
kinases (468) (Homo sapiens, UniProt Q6P2M8), sequence (Q6P2M8 whole entry): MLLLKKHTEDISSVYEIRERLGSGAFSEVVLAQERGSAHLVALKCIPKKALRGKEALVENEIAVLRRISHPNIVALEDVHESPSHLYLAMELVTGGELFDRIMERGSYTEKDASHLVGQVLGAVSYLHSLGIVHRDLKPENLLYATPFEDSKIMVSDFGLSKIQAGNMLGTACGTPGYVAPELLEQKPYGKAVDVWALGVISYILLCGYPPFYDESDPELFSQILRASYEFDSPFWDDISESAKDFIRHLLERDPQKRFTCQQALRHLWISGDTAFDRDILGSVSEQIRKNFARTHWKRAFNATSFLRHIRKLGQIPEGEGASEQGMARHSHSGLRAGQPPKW

kinases (468) [14] = molecular target: kinases (468) (Homo sapiens, UniProt Q9UKE5); conditions: kinase TNIK (Entrez TNIK); compound concentration 1000 nM
kinases (468) [15] = molecular target: kinases (468) (Homo sapiens, UniProt Q8TBX8); conditions: PIP5K2C (PIP4K2C); 1000 nM
kinases (468) [16] = molecular target: kinases (468) (Homo sapiens, UniProt P15056, V600E); conditions: BRAF(V600E); 1000 nM
kinases (468) (Homo sapiens, UniProt P15056, V600E), sequence (P15056 whole entry V600E): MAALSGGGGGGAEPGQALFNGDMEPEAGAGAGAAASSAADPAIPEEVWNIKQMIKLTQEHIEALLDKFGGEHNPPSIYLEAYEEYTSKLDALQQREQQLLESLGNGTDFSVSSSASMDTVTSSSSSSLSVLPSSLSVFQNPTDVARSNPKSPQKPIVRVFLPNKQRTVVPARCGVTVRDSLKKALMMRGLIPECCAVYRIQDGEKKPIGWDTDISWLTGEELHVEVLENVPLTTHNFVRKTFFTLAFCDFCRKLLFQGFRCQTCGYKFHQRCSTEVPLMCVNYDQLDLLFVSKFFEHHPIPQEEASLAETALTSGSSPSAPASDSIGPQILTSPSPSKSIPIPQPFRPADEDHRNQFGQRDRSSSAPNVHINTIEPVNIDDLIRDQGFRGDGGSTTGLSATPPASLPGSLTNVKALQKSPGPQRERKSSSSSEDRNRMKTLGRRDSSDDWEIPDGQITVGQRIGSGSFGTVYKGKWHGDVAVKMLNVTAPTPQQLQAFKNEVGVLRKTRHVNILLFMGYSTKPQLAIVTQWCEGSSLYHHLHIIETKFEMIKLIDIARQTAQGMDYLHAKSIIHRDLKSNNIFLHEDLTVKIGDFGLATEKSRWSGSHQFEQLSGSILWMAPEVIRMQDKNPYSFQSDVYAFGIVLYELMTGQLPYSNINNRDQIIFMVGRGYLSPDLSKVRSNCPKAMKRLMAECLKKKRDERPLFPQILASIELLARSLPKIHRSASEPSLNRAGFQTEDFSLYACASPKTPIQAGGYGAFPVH

kinases (468) [17] = molecular target: kinases (468) (Homo sapiens, UniProt Q16512); conditions: PKN1; 1000 nM
kinases (468) [18] = molecular target: kinases (468) (Homo sapiens, UniProt P42684); conditions: ABL2; 1000 nM
kinases (468) [19] = molecular target: kinases (468) (Homo sapiens, UniProt P21802); conditions: FGFR2; 1000 nM
kinases (468) [20] = molecular target: kinases (468) (Homo sapiens, UniProt O43353); conditions: kinase RIPK2 (Entrez RIPK2); compound concentration 1000 nM
kinases (468) [21] = molecular target: kinases (468) (Homo sapiens, UniProt P28482); conditions: ERK2 (MAPK1); 1000 nM
kinases (468) [22] = molecular target: kinases (468) (Homo sapiens, UniProt Q13043); conditions: MST1 (STK4); 1000 nM
kinases (468) (Homo sapiens, UniProt Q13043), sequence (Q13043 whole entry): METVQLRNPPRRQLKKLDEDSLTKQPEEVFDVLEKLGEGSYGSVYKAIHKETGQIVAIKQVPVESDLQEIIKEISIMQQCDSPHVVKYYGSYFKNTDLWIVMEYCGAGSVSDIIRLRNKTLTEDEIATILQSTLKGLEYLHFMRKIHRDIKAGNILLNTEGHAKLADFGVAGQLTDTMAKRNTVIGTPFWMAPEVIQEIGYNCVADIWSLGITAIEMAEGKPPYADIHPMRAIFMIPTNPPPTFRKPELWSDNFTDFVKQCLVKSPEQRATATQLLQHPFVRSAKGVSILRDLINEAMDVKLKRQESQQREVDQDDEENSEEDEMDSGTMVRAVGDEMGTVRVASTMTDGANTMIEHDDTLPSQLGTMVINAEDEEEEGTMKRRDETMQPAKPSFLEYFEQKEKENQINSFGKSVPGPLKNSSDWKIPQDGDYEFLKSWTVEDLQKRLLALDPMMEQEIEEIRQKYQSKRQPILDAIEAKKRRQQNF

kinases (468) [23] = molecular target: kinases (468) (Homo sapiens, UniProt P06241); conditions: FYN; 1000 nM
kinases (468) [24] = molecular target: kinases (468) (Homo sapiens, UniProt O43293); conditions: DAPK3; 1000 nM
kinases (468) [25] = molecular target: kinases (468) (Homo sapiens, UniProt Q8IY84); conditions: NIM1 (MGC42105); 1000 nM
kinases (468) [26] = molecular target: kinases (468) (Homo sapiens, UniProt P53778); conditions: p38-gamma (MAPK12); 1000 nM
kinases (468) [27] = molecular target: kinases (468) (Homo sapiens, UniProt P00533, L858R); conditions: EGFR(L858R); 1000 nM
kinases (468) [28] = molecular target: kinases (468) (Homo sapiens, UniProt O14965); conditions: AURKA; 1000 nM
kinases (468) (Homo sapiens, UniProt O14965), sequence (O14965 whole entry): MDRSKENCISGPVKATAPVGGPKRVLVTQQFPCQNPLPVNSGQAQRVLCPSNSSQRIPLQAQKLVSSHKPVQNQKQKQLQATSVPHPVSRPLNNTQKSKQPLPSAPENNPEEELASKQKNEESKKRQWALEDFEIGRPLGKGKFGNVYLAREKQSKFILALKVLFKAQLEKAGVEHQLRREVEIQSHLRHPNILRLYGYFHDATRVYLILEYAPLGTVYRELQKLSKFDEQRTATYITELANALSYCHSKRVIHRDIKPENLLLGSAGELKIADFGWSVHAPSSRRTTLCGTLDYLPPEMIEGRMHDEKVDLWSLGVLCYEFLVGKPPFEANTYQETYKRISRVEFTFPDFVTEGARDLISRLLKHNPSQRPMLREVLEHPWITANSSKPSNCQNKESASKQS

kinases (468) [29] = molecular target: kinases (468) (Homo sapiens, UniProt P53350); conditions: PLK1; 1000 nM
kinases (468) (Homo sapiens, UniProt P53350), sequence (P53350 whole entry): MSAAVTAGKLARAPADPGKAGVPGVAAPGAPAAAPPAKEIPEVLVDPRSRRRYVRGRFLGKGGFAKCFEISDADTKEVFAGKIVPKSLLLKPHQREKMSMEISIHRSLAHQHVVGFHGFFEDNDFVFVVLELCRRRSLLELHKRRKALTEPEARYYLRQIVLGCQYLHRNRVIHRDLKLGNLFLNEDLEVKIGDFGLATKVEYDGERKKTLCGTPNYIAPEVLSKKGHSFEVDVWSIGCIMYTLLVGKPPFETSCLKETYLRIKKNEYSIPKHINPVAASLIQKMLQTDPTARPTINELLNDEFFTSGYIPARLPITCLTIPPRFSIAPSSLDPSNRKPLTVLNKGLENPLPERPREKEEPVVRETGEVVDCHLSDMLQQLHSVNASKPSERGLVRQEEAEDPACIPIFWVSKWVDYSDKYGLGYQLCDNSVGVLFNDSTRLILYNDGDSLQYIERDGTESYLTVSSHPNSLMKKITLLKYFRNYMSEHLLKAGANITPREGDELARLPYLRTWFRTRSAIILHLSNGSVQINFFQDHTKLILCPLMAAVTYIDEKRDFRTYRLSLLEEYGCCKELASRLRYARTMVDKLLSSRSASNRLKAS

kinases (468) [30] = molecular target: kinases (468) (Homo sapiens, UniProt P80192); conditions: MLK1 (MAP3K9); 1000 nM
kinases (468) [31] = molecular target: kinases (468) (Homo sapiens, UniProt Q5VT25); conditions: MRCKA (CDC42BPA); 1000 nM
kinases (468) [32] = molecular target: kinases (468) (Homo sapiens, UniProt Q9H2G2); conditions: kinase SLK (Entrez SLK); compound concentration 1000 nM
kinases (468) [33] = molecular target: kinases (468) (Homo sapiens, UniProt Q9BZL6); conditions: PRKD2; 1000 nM
kinases (468) [34] = molecular target: kinases (468) (Homo sapiens, UniProt Q6ZN16); conditions: MAP3K15; 1000 nM
kinases (468) (Homo sapiens, UniProt Q6ZN16), sequence (Q6ZN16 whole entry): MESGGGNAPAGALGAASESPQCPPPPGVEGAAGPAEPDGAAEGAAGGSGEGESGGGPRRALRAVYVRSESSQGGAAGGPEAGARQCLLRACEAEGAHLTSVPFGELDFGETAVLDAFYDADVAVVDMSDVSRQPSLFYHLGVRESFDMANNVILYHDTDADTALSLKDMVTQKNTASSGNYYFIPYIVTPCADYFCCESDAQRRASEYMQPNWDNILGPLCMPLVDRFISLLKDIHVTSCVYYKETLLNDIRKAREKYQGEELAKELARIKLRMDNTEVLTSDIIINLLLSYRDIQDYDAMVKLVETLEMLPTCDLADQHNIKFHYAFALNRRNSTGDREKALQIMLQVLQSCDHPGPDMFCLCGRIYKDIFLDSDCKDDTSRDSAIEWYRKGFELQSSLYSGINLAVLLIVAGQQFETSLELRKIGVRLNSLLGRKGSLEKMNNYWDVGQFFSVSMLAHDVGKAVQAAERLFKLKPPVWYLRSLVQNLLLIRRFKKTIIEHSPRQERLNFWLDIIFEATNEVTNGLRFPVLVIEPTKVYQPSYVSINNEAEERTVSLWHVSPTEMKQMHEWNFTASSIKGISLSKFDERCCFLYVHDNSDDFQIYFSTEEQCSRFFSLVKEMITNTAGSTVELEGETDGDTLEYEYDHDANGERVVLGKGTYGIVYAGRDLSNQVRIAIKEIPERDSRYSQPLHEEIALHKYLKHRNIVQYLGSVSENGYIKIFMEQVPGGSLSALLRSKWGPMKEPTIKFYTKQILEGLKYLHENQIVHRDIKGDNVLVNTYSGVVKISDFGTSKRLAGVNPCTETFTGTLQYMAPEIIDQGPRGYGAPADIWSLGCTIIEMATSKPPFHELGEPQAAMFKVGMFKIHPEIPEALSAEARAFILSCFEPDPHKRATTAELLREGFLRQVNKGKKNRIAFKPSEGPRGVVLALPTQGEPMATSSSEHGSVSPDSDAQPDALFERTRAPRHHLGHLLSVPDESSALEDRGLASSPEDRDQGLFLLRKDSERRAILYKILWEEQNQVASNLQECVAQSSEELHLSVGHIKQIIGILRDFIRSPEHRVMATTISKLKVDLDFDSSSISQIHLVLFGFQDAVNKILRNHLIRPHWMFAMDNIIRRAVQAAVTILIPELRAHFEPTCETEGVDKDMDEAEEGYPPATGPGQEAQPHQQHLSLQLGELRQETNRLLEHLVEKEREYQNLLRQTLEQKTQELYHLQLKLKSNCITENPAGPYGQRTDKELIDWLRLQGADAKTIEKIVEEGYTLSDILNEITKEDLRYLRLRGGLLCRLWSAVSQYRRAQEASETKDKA

kinases (468) [35] = molecular target: kinases (468) (Homo sapiens, UniProt Q00532); conditions: CDKL1; 1000 nM

C[C@H]1C[C@@H](O)CN(c2ncc(Cl)c(Nc3ccc4c(c3)c3c(c(=O)n4C)OCC(F)(F)[C@H](C4CC4)N3)n2)C1 [CCT373566_9A]
Percent Control (kinases (468) [1]): 98% | Percent Control (kinases (468) [2]): 87% | Percent Control (kinases (468) [3]): 100% | Percent Control (kinases (468) [4]): 97% | Percent Control (kinases (468) [5]): 96% | Percent Control (kinases (468) [6]; ABL1(F317I)-nonphosphorylated): 95% | Percent Control (kinases (468) [6]; ABL1(F317I)-phosphorylated): 90% | Percent Control (kinases (468) [7]): 94% | Percent Control (kinases (468) [8]): 100% | Percent Control (kinases (468) [9]): 97% | Percent Control (kinases (468) [10]): 100% | Percent Control (kinases (468) [11]): 100% | Percent Control (kinases (468) [12]): 94% | Percent Control (kinases (468) [13]): 69% | Percent Control (kinases (468) [14]): 94% | Percent Control (kinases (468) [15]): 82% | Percent Control (kinases (468) [16]): 100% | Percent Control (kinases (468) [17]): 100% | Percent Control (kinases (468) [18]): 100% | Percent Control (kinases (468) [19]): 100% | Percent Control (kinases (468) [20]): 100% | Percent Control (kinases (468) [21]): 96% | Percent Control (kinases (468) [22]): 99% | Percent Control (kinases (468) [23]): 100% | Percent Control (kinases (468) [24]): 100% | Percent Control (kinases (468) [25]): 90% | Percent Control (kinases (468) [26]): 92% | Percent Control (kinases (468) [27]): 100% | Percent Control (kinases (468) [28]): 100% | Percent Control (kinases (468) [29]): 83% | Percent Control (kinases (468) [30]): 100% | Percent Control (kinases (468) [31]): 99% | Percent Control (kinases (468) [32]): 100% | Percent Control (kinases (468) [33]): 94% | Percent Control (kinases (468) [34]): 99% | Percent Control (kinases (468) [35]): 97%
